Measurements from the supplement of paper PMC11208160.

Assay: recombinant UMI read abundance after kanamycin selection (control-corrected) (log10(CPM+1)); higher = more efficient recombination; extreme values may be limits of the assay; sequences stand for … in AGTGCAGAGAAAATCGGCCAGTTTTCTCTGCCTGCAGTCCGCATGCCGTGGGACCCCTTGGGTTCTAACCTGTTGCCTAGATTTATGCAGCGGACTGCCTTTCTCCCAAAGTGATAAACCGG…AGGTTGGTTTCACT; site = the 11-nt donor
In short: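 Two replicates each of selected and unselected plating were used in this pooled Escherichia coli screen of donor and donor-binding-loop pairs for the IS621 bridge recombinase. Selection was with IPTG (0.07 mM) and kanamycin. Counts of recombinant UMIs, amplified across the donor–target junction, were converted to CPM, averaged, scaled by control-derived factors and reported as log10(CPM+1).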
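Note: IS621 bridge recombinase in Escherichia coli cells against a fixed T5 target plasmid.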

Sequence | recombinant UMI read abundance (log10)
GAGCCCTCATGGACCGGTTTTCCCGGTAATCCGTATTTGTC (site GAGCCCTCTGA) | 3.73
GAGCCGACATGGACCGGTTTTCCCGGTAATCCGTATTTGGC (site GAGCCGACTGC) | 0
GAGCGCACATGGACCGGTTTTCCCGGTAATCCGTATTTGAT (site GAGCACACTAT) | 1.07
GAGCGCACATGGACCGGTTTTCCCGGTAATCCGTATTTGAT (site GAGCCCACTAT) | 0.285
GAGCGCACATGGACCGGTTTTCCCGGTAATCCGTATTTGAT (site GAGCGCACTAT) | 1.73
GAGCGCACATGGACCGGTTTTCCCGGTAATCCGTATTTGAT (site GAGCTCACTAT) | 0.111
GAGCGTCCATGGACCGGTTTTCCCGGTAATCCGTATTTGGG (site GAGCGTCCTCC) | 0.0151
GAGCGTTCATGGACCGGTTTTCCCGGTAATCCGTATTTGAA (site GAGCGTTCTTT) | 2.83
GAGCTCACATGGACCGGTTTTCCCGGTAATCCGTATTTGAT (site AAGCTCACTAT) | 1.48
GAGCTCACATGGACCGGTTTTCCCGGTAATCCGTATTTGAT (site CAGCTCACTAT) | 0.963
GAGCTCACATGGACCGGTTTTCCCGGTAATCCGTATTTGAT (site GAACTCACTAT) | 0.9
GAGCTCACATGGACCGGTTTTCCCGGTAATCCGTATTTGAT (site GACCTCACTAT) | 0.584
GAGCTCACATGGACCGGTTTTCCCGGTAATCCGTATTTGAT (site GAGATCACTAT) | 0.00858
GAGCTCACATGGACCGGTTTTCCCGGTAATCCGTATTTGAT (site GAGCACACTAT) | 0.159
GAGCTCACATGGACCGGTTTTCCCGGTAATCCGTATTTGAT (site GAGCCCACTAT) | 0.905
GAGCTCACATGGACCGGTTTTCCCGGTAATCCGTATTTGAT (site GAGCGCACTAT) | 0
GAGCTCACATGGACCGGTTTTCCCGGTAATCCGTATTTGAT (site GAGCTAACTAT) | 0
GAGCTCACATGGACCGGTTTTCCCGGTAATCCGTATTTGAT (site GAGCTCACTAA) | 0.00273
GAGCTCACATGGACCGGTTTTCCCGGTAATCCGTATTTGAT (site GAGCTCACTAC) | 0
GAGCTCACATGGACCGGTTTTCCCGGTAATCCGTATTTGAT (site GAGCTCACTAG) | 0.209
GAGCTCACATGGACCGGTTTTCCCGGTAATCCGTATTTGAT (site GAGCTCACTAT) | 2.18
GAGCTCACATGGACCGGTTTTCCCGGTAATCCGTATTTGAT (site GAGCTCACTCT) | 0.206
GAGCTCACATGGACCGGTTTTCCCGGTAATCCGTATTTGAT (site GAGCTCACTGT) | 0.768

Sequence | recombinant UMI read abundance (log10)
GAGCTCACATGGACCGGTTTTCCCGGTAATCCGTATTTGAT (site GAGCTCACTTT) | 0.125
GAGCTCACATGGACCGGTTTTCCCGGTAATCCGTATTTGAT (site GAGCTCCCTAT) | 0.00734
GAGCTCACATGGACCGGTTTTCCCGGTAATCCGTATTTGAT (site GAGCTCGCTAT) | 0.318
GAGCTCACATGGACCGGTTTTCCCGGTAATCCGTATTTGAT (site GAGCTCTCTAT) | 0.783
GAGCTCACATGGACCGGTTTTCCCGGTAATCCGTATTTGAT (site GAGCTGACTAT) | 0.0158
GAGCTCACATGGACCGGTTTTCCCGGTAATCCGTATTTGAT (site GAGCTTACTAT) | 0.342
GAGCTCACATGGACCGGTTTTCCCGGTAATCCGTATTTGAT (site GAGGTCACTAT) | 0.0104
GAGCTCACATGGACCGGTTTTCCCGGTAATCCGTATTTGAT (site GAGTTCACTAT) | 0.209
GAGCTCACATGGACCGGTTTTCCCGGTAATCCGTATTTGAT (site GATCTCACTAT) | 0.0468
GAGCTCACATGGACCGGTTTTCCCGGTAATCCGTATTTGAT (site GCGCTCACTAT) | 0.011
GAGCTCACATGGACCGGTTTTCCCGGTAATCCGTATTTGAT (site GGGCTCACTAT) | 0.394
GAGCTCACATGGACCGGTTTTCCCGGTAATCCGTATTTGAT (site GTGCTCACTAT) | 0.296
GAGCTCACATGGACCGGTTTTCCCGGTAATCCGTATTTGAT (site TAGCTCACTAT) | 1.66
GAGCTCTCATGGACCGGTTTTCCCGGTAATCCGTATTTGAC (site GAGCTCTCTGT) | 3.55
GAGCTTACATGGACCGGTTTTCCCGGTAATCCGTATTTGAT (site GAGCTAACTAT) | 0.136
GAGCTTACATGGACCGGTTTTCCCGGTAATCCGTATTTGAT (site GAGCTCACTAT) | 0.0125
GAGCTTACATGGACCGGTTTTCCCGGTAATCCGTATTTGAT (site GAGCTGACTAT) | 0.0138
GAGCTTACATGGACCGGTTTTCCCGGTAATCCGTATTTGAT (site GAGCTTACTAT) | 1.77
GAGGAGGCATGGACCGGTTTTCCCGGTAATCCGTATTTGTG (site GAGGAGGCTCA) | 0.576
GAGGAGGCATGGACCGGTTTTCCCGGTAATCCGTATTTGTG (site GCGGAGGCTCA) | 0.367
GAGGAGGCATGGACCGGTTTTCCCGGTAATCCGTATTTGTG (site GGGGAGGCTCA) | 0.0134
GAGGAGGCATGGACCGGTTTTCCCGGTAATCCGTATTTGTG (site GTGGAGGCTCA) | 0.26
GAGGCAACATGGACCGGTTTTCCCGGTAATCCGTATTTGCT (site GAGGCAACTAG) | 1.66

Sequence | recombinant UMI read abundance (log10)
GAGGGTTCATGGACCGGTTTTCCCGGTAATCCGTATTTGCG (site GAGGGTTCTCG) | 2.63
GAGGTTCCATGGACCGGTTTTCCCGGTAATCCGTATTTGGC (site GAGGTTCCTGC) | 0
GAGTAATCATGGACCGGTTTTCCCGGTAATCCGTATTTGGG (site GAGTAATCTCC) | 1.57
GAGTAGGCATGGACCGGTTTTCCCGGTAATCCGTATTTGAT (site GAGTAGGCTAT) | 1.96
GAGTAGGCATGGACCGGTTTTCCCGGTAATCCGTATTTGGG (site GAGTAGGCTCC) | 0.566
GAGTCATCATGGACCGGTTTTCCCGGTAATCCGTATTTGGT (site GAGTCATCTAC) | 1.02
GAGTCCCCATGGACCGGTTTTCCCGGTAATCCGTATTTGTC (site GAGTCCCCTGA) | 0.99
GAGTGATCATGGACCGGTTTTCCCGGTAATCCGTATTTGCT (site GAGTGATCTAG) | 2.62
GAGTTCGCATGGACCGGTTTTCCCGGTAATCCGTATTTGGA (site GAGTTCGCTTC) | 1.08
GATAAATCATGGACCGGTTTTCCCGGTAATCCGTATTTGAC (site GATAAATCTGT) | 1.03
GATAAGTCATGGACCGGTTTTCCCGGTAATCCGTATTTGCC (site GATAAGTCTGG) | 2.1
GATACGACATGGACCGGTTTTCCCGGTAATCCGTATTTGTT (site GATACGACTAA) | 0.259
GATACTGCATGGACCGGTTTTCCCGGTAATCCGTATTTGCA (site GATACTGCTTG) | 1.61
GATACTGCATGGACCGGTTTTCCCGGTAATCCGTATTTGTC (site GATACTGCTGA) | 1.28
GATAGGTCATGGACCGGTTTTCCCGGTAATCCGTATTTGGA (site GATAGGTCTTC) | 1.15
GATATAGCATGGACCGGTTTTCCCGGTAATCCGTATTTGGT (site GATATAGCTAC) | 1.08
GATATATCATGGACCGGTTTTCCCGGTAATCCGTATTTGCG (site GATATATCTCG) | 1.42
GATCAAACATGGACCGGTTTTCCCGGTAATCCGTATTTGAA (site GATCAAACTTT) | 0
GATCCCTCATGGACCGGTTTTCCCGGTAATCCGTATTTGGC (site GATCCCTCTGC) | 0.839
GATCCGTCATGGACCGGTTTTCCCGGTAATCCGTATTTGCG (site GATCCGTCTCG) | 0.274
GATCCTACATGGACCGGTTTTCCCGGTAATCCGTATTTGCT (site GATCCTACTAG) | 0.00962
GATCCTTCATGGACCGGTTTTCCCGGTAATCCGTATTTGTC (site GATCCTTCTGA) | 0.252
